Experimental data reported in patent EP0516978A1, “Enantiomers of substituted (aminophenyl)-heteroarylethylamines, a method for their preparation, and pharmaceutical compositions containing these compounds” (HOECHST AKTIENGESELLSCHAFT, priority 1991, dated 1992).

Key:
[1] = tested on: NMRI-Mäusen; assay: CNS tolerability in the healthy animal (mouse), behavioural observation; format: in vivo, Maus; conditions: for Symptome: phenomena observed 3 hours after application; for Dosis, ab der eine ZNS erregende Aktivität, die als unverträglich gilt, auftritt: mouse, i.p., dose from which the behaviour-altering CNS excitation is seen
Method: Adulten männlichen NMRI-Mäusen werden die zu untersuchenden Substanzen in Dosen von 0,1-100 mg/kg i.p. in einem Volumen von 10 ml/kg verabreicht. Pro Versuchsdosis werden drei Tiere eingesetzt, wobei eine Gruppe als Placebo nur mit dem Lösungsmittel behandelt (Kontrolle) mitgeführt wird.
Die Placebogruppe dient dabei zur zeitgleichen Verhaltensfeststellung, parallel zur Versuchsgruppe. Sofort nach der Applikation werden die Tiere in Dreiergruppen in Beobachtungskäfige gesetzt und drei Stunden lang am ersten Tag beobachtet. Anschließend werden die Tiere gefüttert, getränkt und weitere sechs Tage, jeweils nach 24 Stunden, für eine halbe Stunde beobachtet. Dabei ergaben sich folgende Befunde: Tabelle 2

[2] = tested on: Mongolischen Gerbil; assay: Neuroprotection after forebrain ischaemia in the gerbil (5-minute bilateral carotid artery occlusion); format: in vivo; conditions: treated vs. control group; for Verhaltensscore (% Änderung): 5-step neurological score over 45 min after ischaemia; for Zellnekrosen (% Änderung): 5-step histopathological score, hippocampal CA₁ region, 7 days later
Text: Anhand der nachfolgend beschriebenen Versuchsdurchführungen (K. Rudolphi et. al, J. Cereb. Blood Flow Metab., 7:74. 1987) ergibt sich, daß die unten aufgeführten Verbindungen in der Lage sind, zerebrale Nervenzellen gegen eine schwere ischämische Schädigung zu schützen.
Bei 20 männlichen Mongolischen Gerbils werden unter Halothan-Narkose durch beidseitigen Verschluß der A. Carotis mittels Aneurysmaclips eine 5-minütige Ischämie des Vorderhirns mit anschließender Rezirkulation erzeugt. Die Tiere werden 45 Minuten lang nach der Ischämie beobachtet und das Ausmaß der neurologischen Symptome mittels eines 5-stufigen Verhaltensscores bestimmt. 7 Tage später werden die Tiere unter Halothan-Narkose dekapitiert, die Gehirne in Carnoy-Lösung immersionsfixiert und das Ausmaß des Neuronenschadens in der CA₁-Region des Hippocampus mit Hilfe eines 5-stufigen histopathologischen Scores "blind" bestimmt. Die Prüfsubstanzen werden je einer Gruppe von 10 Gerbils intraperitoneal oder per os 15 Minuten vor der Ischämie verabreicht. Pro Testsubstanz wird eine ischämische Kontrollgruppe von ebenfalls 10 Tieren mit dem jeweiligen Lösungsmittel behandelt. Die Ergebnisse sind in Tabelle 6 als % Änderung des mittleren neurologsichen Verhaltensscores bzw. histopathologischen Scores (Summe der individuellen Scores/Anzahl der Tiere) der behandelten vs. Kontrollgruppe zusammengefaßt. Tabelle 1
Je höher der Verhaltensscore (-% Änderungen), desto besser ist die Erholung der Tiere nach Ischämie.

[3] = 30 mg/kg ip. 15 min before 5-min forebrain ischaemia
[4] = 30 mg/kg ip. 15 min before ischaemia

Row | SMILES | Symptome ([1]; dose 0,1-0,3 mg/kg i.p.) | Symptome ([1]; dose 1,0-3,0 mg/kg i.p.) | Symptome ([1]; dose 10-100 mg/kg i.p.) | Dosis, ab der eine ZNS erregende Aktivität, die als unverträglich gilt, auftritt ([1]; listed as (+)-Form) [mg/kg i. p.] | Verhaltensscore (% Änderung) [2, 3] [% Änderung] | Zellnekrosen (% Änderung) [2, 4] [% Änderung] | Symptome ([1]; dose 0,01-0,3 mg/kg i.p.) | Dosis, ab der eine ZNS erregende Aktivität, die als unverträglich gilt, auftritt ([1]; listed as (-)-Form) [mg/kg i. p.] | Verhaltensscore (% Änderung) ([2]; 60 mg/kg ip. 15 min before 5-min forebrain ischaemia) | Zellnekrosen (% Änderung) ([2]; 60 mg/kg ip. 15 min before ischaemia) | Symptome ([1]; dose 0,1-3 mg/kg i.p.) | Dosis, ab der eine ZNS erregende Aktivität, die als unverträglich gilt, auftritt [1] [mg/kg i. p.]
1 | CNC(Cc1ccccc1N)c1sccc1C (single isomer, unassigned; (+)) [(+)II, 2-Amino-N-methyl-α-(3-methyl-2-thienyl)benzylethanamin] | o. B. | kurzandauernde Erregung | vermehrter Putztrieb, Unruhe, Erregung, Taumeln | ≥ 10 | -51 | -90 |  |  |  |  |  | 
2 | CNC(Cc1ccccc1N)c1sccc1C (single isomer, unassigned; (-)) [(-)II, 2-Amino-N-methyl-α-(3-methyl-2-thienyl)benzylethanamin] |  | o. B. | Unruhe, vermehrter Putztrieb |  | -32 |  | o. B. | ≥ 100 | -75 | -23 |  | 
3 | CNC(Cc1ccccc1N)c1sccc1C (racemic) [Razemisch II, 2-Amino-N-methyl-α-(3-methyl-2-thienyl)benzylethanamin] |  | Unruhe, Erregung, vermehrter Putztrieb | Taumeln, vermehrter Putztrieb, Unruhe, Erregung |  | -15 | -75 |  |  |  |  | vermehrter Putztrieb | ≥ 10
